melting point	SMILES
218 °C	CSc1nc(NS(=O)(=O)c2ccc(C)cc2)c(C#N)c(-c2ccc(Cl)cc2)c1Br
40 °C	Cc1ccc(CC=O)cc1
233 °C	COc1ccc(Cc2cnc(N)nc2N)cc1OC
182 to 184 °C	CC1N=C(S)N2C(C)N=C(S)N12 (centres undefined)
190 °C	NS(=O)(=O)c1ccccc1Cl
185 to 186 °C	O=C(O)c1ccc(OC2CCOCC2)cc1
240 °C	O=C(O)CCc1ccc2c(c1)NC(=O)CC2
41 °C	BrCCC(c1ccccc1)c1ccccc1
150 °C	COC(=O)c1ccc2c(I)c[nH]c2c1
34 °C	CC(=O)c1cccc2ccccc12
127 °C	O=C(O)CCCCCCCCCCCCC(=O)O
7.08 °C	CCCOCC(C)OCC(C)O (centres undefined)
145 to 148 °C	CCOC(=O)c1c2n(n(-c3ccc([N+](=O)[O-])cc3)c1=N)C(=O)CS2
134 °C	CCOC(=O)c1ccc(O)c(O)c1
137 °C	O=C(OCCc1ccc(CCOC(=O)c2ccccc2)cc1)c1ccccc1
236 °C	COc1ccc(C=Cc2cc(O)cc(OC3OC(CO)C(O)C(O)C3O)c2)cc1O (centres undefined)
89 °C	CC1C=Cn2c(cc3ccccc3c2=O)C1 (centres undefined)
182 to 184 °C	Brc1ccccc1-c1nnn[nH]1
161 to 164 °C	O=C(O)C=CC(=O)Nc1cccc(C(F)(F)F)c1
135 to 137 °C	N#Cc1c(N)cccc1Cl
99 °C	CCOC(=O)C1=NN(c2ccc(Cl)cc2Cl)C(=O)C1C(Cl)C1(Cl)C(=O)N(c2ccc(Cl)cc2Cl)N=C1C(=O)OCC (centres undefined)
88 to 89 °C	COC(=O)c1cc2ccccc2cn1

melting point	SMILES
192 °C	Nc1c(CN2CCOCC2)c(=O)oc2ccccc12
111 °C	O=C1C(Br)=C(c2ccccc2)c2ccccc21
147 °C	COc1ccc(C)c(C(=O)O)c1
249 to 252 °C	c1cnc2c(ccc3nccnc32)n1
293 to 294 °C	O=C(c1ccccc1)N1CCc2cc3c(cc21)CCN3C(=O)c1ccccc1
150 to 152 °C	NNc1ncnc2scc(-c3ccccc3)c12
-25 °C	CCOCCOC(=O)C=Cc1ccc(OC)cc1
300 °C	Sc1nc(-c2ccccc2)c(-c2ccccc2)[nH]1
158 °C	COc1cc2c(N)nc(N3CCN(C(=O)OCC(C)(C)O)CC3)nc2c(OC)c1OC
257 °C	Cc1ccc(C(O)C2C(=O)N(c3ccccc3)N=C2C(F)(F)F)cc1 (centres undefined)
38 to 39.5 °C	Cc1cncc(Oc2cccc(Br)c2)n1
165 °C	Cc1ccc(-c2cccc(-c3ccc(C)cc3)n2)cc1
143 °C	COc1ccc(CNC(=O)c2ccccc2)cc1OCc1ccccc1
149 °C	COc1cc(C2Nn3c(nnc3-c3ccccc3)S2)ccc1O (centres undefined)
104 °C	CC(=O)NC(=O)COC(=O)c1ccccc1
4 °C	CCCCCCN1CCCC1=O
124 °C	O=C(C(=O)C(Br)c1ccccc1)C(Br)c1ccccc1 (centres undefined)
81 °C	COc1cc(C(C)=O)cc(OC)c1OC
167 °C	CCOC(=O)c1cc2c(=O)oc3ccccc3c2nc1C
88.5 to 90 °C	CCOC(=O)c1csc(N2CCOCC2)n1
123 to 124 °C	CC(C)(Oc1ccc2ccccc2c1)C(=O)O
39 °C	N#Cc1ccc(C(F)(F)F)nc1

SMILES	melting point
CC(=O)OC1CC[C@]2(C)[C@H]3CC[C@]4(C)C(=O)CC[C@H]4[C@@H]3C(=O)C[C@@]2(C)C1 (some centres undefined)	153 to 157 °C
Cc1ccc2cc(C)ccc2c1	112 °C
ICCCCCCCCI	16 to 21 °C
Clc1ccc(-c2cc(Cl)c(Cl)c(Cl)c2Cl)cc1	98 °C
N#Cc1ccc(C(F)(F)F)cc1Cl	83 °C

— a melting point compilation (Tetko et al.)
